Source: PMC6754304 (Cell, 2019)

Biological target: S. cerevisiae HSP90 (HSP82) (Saccharomyces cerevisiae, UniProt P02829)
Sequence (P02829 whole entry): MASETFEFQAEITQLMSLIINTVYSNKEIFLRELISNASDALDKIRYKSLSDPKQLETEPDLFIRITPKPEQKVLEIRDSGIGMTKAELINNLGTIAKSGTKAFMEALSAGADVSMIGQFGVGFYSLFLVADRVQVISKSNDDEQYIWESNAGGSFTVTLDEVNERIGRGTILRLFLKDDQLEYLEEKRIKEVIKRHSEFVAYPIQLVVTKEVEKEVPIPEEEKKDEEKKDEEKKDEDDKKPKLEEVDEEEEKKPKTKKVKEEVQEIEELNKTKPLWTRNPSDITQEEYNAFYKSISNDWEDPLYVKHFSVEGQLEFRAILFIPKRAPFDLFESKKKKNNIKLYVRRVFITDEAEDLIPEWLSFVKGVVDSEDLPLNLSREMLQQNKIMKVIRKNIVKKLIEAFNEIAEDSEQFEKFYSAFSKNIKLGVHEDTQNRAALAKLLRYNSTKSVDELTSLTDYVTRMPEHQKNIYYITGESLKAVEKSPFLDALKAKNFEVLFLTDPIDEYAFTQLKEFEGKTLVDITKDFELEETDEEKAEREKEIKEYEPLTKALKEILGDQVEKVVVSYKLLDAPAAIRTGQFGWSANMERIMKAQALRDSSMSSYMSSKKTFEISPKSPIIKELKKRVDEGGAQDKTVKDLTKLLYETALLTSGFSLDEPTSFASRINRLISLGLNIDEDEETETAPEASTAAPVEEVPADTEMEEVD

Question: Which ATPase activity does the source give for `Nc1ncnc2c1ncn2[C@@H]1O[C@H](COP(=O)(O)OP(=O)(O)OP(=O)(O)O)[C@@H](O)[C@H]1O` [ATP] here?
Answer: The ATPase activity was “assayed by measuring free phosphate release from ATP using the Malachite Green method”.
